The source of these data is PMC6458216, “In vitro reconstitution and characterisation of the oxidative D-xylose pathway for production of organic acids and alcohols” (AMB Express, 2019).

Type in all cases: biochemical
The target in one assay is T1, Cc XylC (Caulobacter vibrioides, UniProt Q9A9Z1).
T1 construct: full length, untagged (C-terminal Strep-tag II removed), synthetic codon-optimised gene in E. coli BL21(DE3), DEAE purified, mainly monomer
Briefly: CD ([…] nm) and 1H-NMR lactone ring-opening assay. To be noted: CD: 1 mM lactone, 10 mM Tris-HCl pH 6-8, 25 °C; NMR: 2 mM lactone, pH 6.8, 22 °C, 100 µM metal ions or EDTA.

In a further assay the target is T2, Ec FucO (Escherichia coli, UniProt P0A9S1).
T2 sequence (P0A9S1 1-382): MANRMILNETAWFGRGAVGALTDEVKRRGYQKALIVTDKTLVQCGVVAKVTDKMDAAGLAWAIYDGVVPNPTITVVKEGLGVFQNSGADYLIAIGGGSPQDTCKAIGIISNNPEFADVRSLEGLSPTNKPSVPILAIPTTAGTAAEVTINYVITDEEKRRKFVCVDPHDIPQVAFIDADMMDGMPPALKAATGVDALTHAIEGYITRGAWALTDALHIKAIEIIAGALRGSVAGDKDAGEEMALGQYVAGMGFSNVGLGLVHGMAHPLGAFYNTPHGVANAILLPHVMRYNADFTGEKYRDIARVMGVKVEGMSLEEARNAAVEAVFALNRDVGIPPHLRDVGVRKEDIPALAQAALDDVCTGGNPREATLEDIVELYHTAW
Briefly: purified enzyme within 4-enzyme cascade, NADH oxidation at […] nm. The note with it: glycolaldehyde formed by Ec YagE from 1 mM xylonolactone via cascade; 2 mM NADH, 50 mM Tris-HCl pH 7.0, 22 °C.

For another assay, the target named is Ec AldA (Escherichia coli, UniProt P25553). Nature of the assay: NADH formation at […] nm, steady-state kinetics. The note with it: 50 mM Tris-HCl pH 7.0, 2 mM NAD+, 1 mM DTT, glycolaldehyde 0-2 mM.
Ec AldA, sequence (P25553 whole entry): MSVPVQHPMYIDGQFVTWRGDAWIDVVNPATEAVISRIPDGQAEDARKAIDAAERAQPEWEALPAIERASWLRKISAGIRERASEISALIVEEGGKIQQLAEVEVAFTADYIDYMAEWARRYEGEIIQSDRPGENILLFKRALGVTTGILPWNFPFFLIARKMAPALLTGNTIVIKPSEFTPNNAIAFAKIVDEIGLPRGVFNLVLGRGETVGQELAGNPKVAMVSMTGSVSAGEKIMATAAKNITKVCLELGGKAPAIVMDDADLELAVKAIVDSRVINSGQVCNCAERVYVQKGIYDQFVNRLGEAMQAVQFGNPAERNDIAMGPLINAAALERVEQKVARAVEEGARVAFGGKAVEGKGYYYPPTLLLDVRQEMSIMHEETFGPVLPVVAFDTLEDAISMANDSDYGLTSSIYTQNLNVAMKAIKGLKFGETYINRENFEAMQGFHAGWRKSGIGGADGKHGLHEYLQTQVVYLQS
A further assay has as its target Ab AraE (Azospirillum brasilense, UniProt Q1JUP4). Nature of the assay: NADH formation at […] nm, steady-state kinetics. The note with it: 50 mM Tris-HCl pH 7.0, 2 mM NAD+, 1 mM DTT, glycolaldehyde 0-2 mM.

T1 sequence (Q9A9Z1 whole entry): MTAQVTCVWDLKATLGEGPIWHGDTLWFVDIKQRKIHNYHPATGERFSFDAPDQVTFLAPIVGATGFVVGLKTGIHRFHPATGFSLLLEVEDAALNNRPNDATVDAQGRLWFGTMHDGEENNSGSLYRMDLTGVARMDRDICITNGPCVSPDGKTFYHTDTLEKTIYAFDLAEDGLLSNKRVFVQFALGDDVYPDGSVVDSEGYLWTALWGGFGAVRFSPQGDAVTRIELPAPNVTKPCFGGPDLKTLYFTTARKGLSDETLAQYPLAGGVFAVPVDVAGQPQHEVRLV
Ab AraE, sequence (Q1JUP4 whole entry): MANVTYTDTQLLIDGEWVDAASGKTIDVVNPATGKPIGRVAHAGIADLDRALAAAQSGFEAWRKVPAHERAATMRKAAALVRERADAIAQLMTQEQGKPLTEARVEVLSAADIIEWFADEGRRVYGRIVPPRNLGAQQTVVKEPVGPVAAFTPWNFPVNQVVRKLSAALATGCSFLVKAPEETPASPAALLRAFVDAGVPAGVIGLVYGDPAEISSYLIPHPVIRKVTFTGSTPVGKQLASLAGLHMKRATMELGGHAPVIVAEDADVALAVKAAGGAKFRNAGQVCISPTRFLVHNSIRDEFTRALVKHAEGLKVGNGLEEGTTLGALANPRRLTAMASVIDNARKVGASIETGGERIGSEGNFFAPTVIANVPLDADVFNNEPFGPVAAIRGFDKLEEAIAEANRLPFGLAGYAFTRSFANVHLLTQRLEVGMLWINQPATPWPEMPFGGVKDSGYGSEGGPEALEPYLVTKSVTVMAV

In the case of `O=C1O[C@H](CO)[C@H](O)[C@H]1O` [D-xylono-1,4-lactone], at Cc XylC, the “CD (220 nm) and 1H-NMR lactone ring-opening assay” value is “Cc XylC was able to open the xylonolactone without addition of any metal”. As to `NC(=O)C1=CN([C@@H]2O[C@H](COP(=O)(O)OP(=O)(O)OC[C@H]3O[C@@H](n4cnc5c(N)ncnc54)[C@H](O)[C@@H]3O)[C@@H](O)[C@H]2O)C=CC1` [NADH], on Ec FucO, the “purified enzyme within 4-enzyme cascade, NADH oxidation at 340 nm” value is on record as “the production of ethylene glycol was followed through generation of NAD^+”.

`O=CCO` [glycolaldehyde]: the “NADH formation at 340 nm, steady-state kinetics” value on Ec AldA was “we compare the glycolaldehyde dependent activity of Ec AldA and Ab AraE”; on Ab AraE, “we compare the glycolaldehyde dependent activity of Ec AldA and Ab AraE”. Further, the “purified enzyme within 4-enzyme cascade, NADH oxidation at 340 nm” value on Ec FucO was “an increase of the enzyme concentration resulted in an increase in the production levels”.
